Source: ChEMBL document CHEMBL1201862, “PubChem BioAssay data set” (2004)
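Tested at 5 concentrations; 48 h exposure; 96-well plates; endpoints linearly interpolated, else capped at highest concentration. GI50 marks 50% less growth.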 Active and inactive are the calls of the source. No stated cut-off is given here; in the data, active = GI50 up to about 1.1 µM and inactive = higher.

Columns and labels:
Test in all cases: NCI tumour cell line growth inhibition, 48 h
[1] = system: HCT-116
[2] = system: EKVX
[3] = system: IGROV-1
[4] = system: K562
[5] = system: UO-31
[6] = system: M14
[7] = system: NCI/ADR-RES
[8] = system: RXF 393
[9] = system: LOX IMVI
[10] = system: SW-620
[11] = system: NCI-H522
[12] = system: SK-MEL-5
[13] = system: OVCAR-3
[14] = system: SK-MEL-2
[15] = system: DU-145
[16] = system: SNB-19
[17] = system: MDA-MB-231
[18] = system: CAKI-1
[19] = system: SN12C
[20] = system: SF-539

O=C1CCC(=O)N1n1c(Cc2ccccc2)n[nH]c1=O
GI50 [1]: > 100 µM (inactive) | GI50 [2]: > 100 µM (inactive) | GI50 [3]: > 100 µM (inactive) | GI50 [4]: > 100 µM (inactive) | GI50 [5]: > 100 µM (inactive) | GI50 [6]: > 100 µM (inactive) | GI50 [7]: > 100 µM (inactive) | GI50 [8]: > 100 µM (inactive) | GI50 [9]: > 100 µM (inactive) | GI50 [10]: > 100 µM (inactive) | GI50 [11]: > 100 µM (inactive) | GI50 [12]: > 100 µM (inactive) | GI50 [13]: > 100 µM (inactive) | GI50 [14]: > 100 µM (inactive) | GI50 [15]: > 100 µM (inactive) | GI50 [16]: > 100 µM (inactive) | GI50 [17]: > 100 µM (inactive) | GI50 [18]: > 100 µM (inactive) | GI50 [19]: > 100 µM (inactive)

Cc1ccc(-c2nc(-c3cnccn3)n(C3OC(CO)C(O)C(O)C3O)n2)cc1 (stereo unspecified)
GI50 [20]: > 100 µM (inactive) | GI50 [1]: > 100 µM (inactive) | GI50 [2]: > 100 µM (inactive) | GI50 [3]: > 100 µM (inactive) | GI50 [4]: > 100 µM (inactive) | GI50 [5]: > 100 µM (inactive) | GI50 [6]: > 100 µM (inactive) | GI50 [7]: > 100 µM (inactive) | GI50 [8]: > 100 µM (inactive) | GI50 [9]: > 100 µM (inactive) | GI50 [10]: > 100 µM (inactive) | GI50 [11]: > 100 µM (inactive) | GI50 [12]: > 100 µM (inactive) | GI50 [13]: > 100 µM (inactive) | GI50 [15]: > 100 µM (inactive) | GI50 [16]: > 100 µM (inactive) | GI50 [17]: > 100 µM (inactive) | GI50 [19]: > 100 µM (inactive)

O=[N+]([O-])c1ccc(N2N=C(c3c(O)ccc4ccccc34)CC2c2ccc(Cl)cc2)c([N+](=O)[O-])c1 (stereo unspecified)
GI50 [20]: 30.1 µM (inactive) | GI50 [1]: 15.3 µM (inactive) | GI50 [3]: 22.1 µM (inactive) | GI50 [4]: 5.28 µM (inactive) | GI50 [5]: 17.9 µM (inactive) | GI50 [6]: 18.5 µM (inactive) | GI50 [7]: 16.4 µM (inactive) | GI50 [8]: 20 µM (inactive) | GI50 [10]: 25.3 µM (inactive) | GI50 [11]: 31.5 µM (inactive) | GI50 [12]: 20.4 µM (inactive) | GI50 [13]: 29.9 µM (inactive) | GI50 [14]: 17.8 µM (inactive) | GI50 [15]: 19.5 µM (inactive) | GI50 [17]: 23.8 µM (inactive) | GI50 [18]: 28.7 µM (inactive) | GI50 [19]: 33.4 µM (inactive)

CC(C)=Cc1cc(CCC/C(C)=C/Cc2c(O)cc(C)c(C(=O)O)c2O)co1
GI50 [20]: > 100 µM (inactive) | GI50 [1]: > 100 µM (inactive) | GI50 [2]: > 100 µM (inactive) | GI50 [3]: > 100 µM (inactive) | GI50 [4]: 0.203 µM (active) | GI50 [5]: > 100 µM (inactive) | GI50 [6]: > 100 µM (inactive) | GI50 [7]: > 100 µM (inactive) | GI50 [9]: 86.9 µM (inactive) | GI50 [10]: > 100 µM (inactive) | GI50 [11]: 12.9 µM (inactive) | GI50 [12]: > 100 µM (inactive) | GI50 [13]: > 100 µM (inactive) | GI50 [14]: > 100 µM (inactive) | GI50 [15]: > 100 µM (inactive) | GI50 [16]: > 100 µM (inactive) | GI50 [17]: 39 µM (inactive) | GI50 [18]: > 100 µM (inactive) | GI50 [19]: > 100 µM (inactive)

N#C/C(=N/Nc1[nH]cnc1C(N)=O)C(=O)Nc1ccccc1
GI50 [1]: 14.3 µM (inactive) | GI50 [2]: 65.5 µM (inactive) | GI50 [3]: 4.55 µM (inactive) | GI50 [4]: 1.52 µM (inactive) | GI50 [5]: 3.43 µM (inactive) | GI50 [6]: 4.99 µM (inactive) | GI50 [7]: 3.45 µM (inactive) | GI50 [8]: 59.4 µM (inactive) | GI50 [10]: 12.5 µM (inactive) | GI50 [11]: 7.71 µM (inactive) | GI50 [12]: 58.5 µM (inactive) | GI50 [13]: 5.41 µM (inactive) | GI50 [14]: 5.27 µM (inactive) | GI50 [15]: 6.3 µM (inactive) | GI50 [16]: > 100 µM (inactive) | GI50 [17]: 32.3 µM (inactive) | GI50 [19]: 4.71 µM (inactive)

CCCCCCCCCCC(C(=O)O)C1(C(=O)O)CCC(=O)O1 (stereo unspecified)
GI50 [1]: > 100 µM (inactive) | GI50 [2]: > 100 µM (inactive) | GI50 [3]: > 100 µM (inactive) | GI50 [4]: > 100 µM (inactive) | GI50 [5]: > 100 µM (inactive) | GI50 [6]: > 100 µM (inactive) | GI50 [7]: > 100 µM (inactive) | GI50 [8]: > 100 µM (inactive) | GI50 [9]: > 100 µM (inactive) | GI50 [10]: > 100 µM (inactive) | GI50 [11]: > 100 µM (inactive) | GI50 [13]: > 100 µM (inactive) | GI50 [14]: > 100 µM (inactive) | GI50 [15]: > 100 µM (inactive) | GI50 [16]: > 100 µM (inactive) | GI50 [17]: > 100 µM (inactive) | GI50 [18]: > 100 µM (inactive) | GI50 [19]: > 100 µM (inactive)

CCCCn1c(N)c(-c2nc3ccccc3o2)sc1=S
GI50 [20]: 10.1 µM (inactive) | GI50 [1]: 10.5 µM (inactive) | GI50 [2]: 21.8 µM (inactive) | GI50 [3]: 21.8 µM (inactive) | GI50 [4]: 22.3 µM (inactive) | GI50 [5]: 20 µM (inactive) | GI50 [6]: 23 µM (inactive) | GI50 [7]: 18.2 µM (inactive) | GI50 [8]: 36.7 µM (inactive) | GI50 [11]: 14.2 µM (inactive) | GI50 [12]: 14 µM (inactive) | GI50 [13]: 16.7 µM (inactive) | GI50 [14]: 13.4 µM (inactive) | GI50 [15]: 12.4 µM (inactive) | GI50 [16]: 41.3 µM (inactive) | GI50 [17]: 16.8 µM (inactive) | GI50 [18]: 13.7 µM (inactive) | GI50 [19]: 22.1 µM (inactive)
